Assay results: patent US10538555B2, “Macrocyclic inhibitors of the PD-1/PD-L1 and CD80(B7-1)/PD-L1 protein/protein interactions” (BRISTOL-MYERS SQUIBB COMPANY, priority 2014, dated 2020)
pIC50: −log10 of the molar value. *1 amine or outer side, *2 acyl side, *3 side chain or, on linkers, in order; H or OH if unused. Where a SMILES comes first, the peptide text is derived from it. Bridges are numbered along the chain shown (N, C = ends). [ ]: non-standard residue; d: D form. Trp(1-CH2COOH) = N[C@@H](Cc1cn(CC(=O)O)c2ccccc12)C(=O)O; Phe(3,4,5-F3) = N[C@@H](Cc1cc(F)c(F)c(F)c1)C(=O)O; Phe(3,4-F2) = N[C@@H](Cc1ccc(F)c(F)c1)C(=O)O; NMePhe(4-F) = CN[C@@H](Cc1ccc(F)cc1)C(=O)O; Morpholine(3S-CO) = O=C(O)[C@@H]1COCCN1; d(cisHyp) = O=C(O)[C@H]1C[C@@H](O)CN1; Bta = N[C@@H](Cc1csc2ccccc12)C(=O)O; NMeY = CN[C@@H](Cc1ccc(O)cc1)C(=O)O; Hyp = O=C(O)[C@@H]1C[C@@H](O)CN1; NMeF = CN[C@@H](Cc1ccccc1)C(=O)O; X1 = O=C([C@H]1COCCN1[*:1])[*:2]; dNMeF = CN[C@H](Cc1ccccc1)C(=O)O; dPip(4-aza) = O=C(O)[C@H]1CNCCN1; dHyp = O=C(O)[C@H]1C[C@H](O)CN1; NMeNle = CCCC[C@H](NC)C(=O)O; dPip = O=C(O)[C@H]1CCCCN1; hSer = N[C@@H](CCO)C(=O)O; NMeA = CN[C@@H](C)C(=O)O; Orn = NCCC[C@H](N)C(=O)O; dThz = O=C(O)[C@H]1CSCN1; Dab = NCC[C@H](N)C(=O)O; Dap = NC[C@H](N)C(=O)O; Sar = CNCC(=O)O

What follows are molecules tested against T1, Human PD-L1/PD-1 (Homo sapiens, UniProt Q9NZQ7) (assay: HTRF Human PD-L1/PD-1 binding assay (PD-1-Ig/PD-L1-His)). Details: PD-L1-His 10 nM, PD-1-Ig 20 nM; class symbol; read-out: HTRF Human PD-L1/PD-1 Binding Assay IC50 Range.
T1 construct: TVMV protease cleavage site (C); made in house; host or cells: HEK293T cells
T1 sequence (Q9NZQ7 with tags, fused parts or gaps): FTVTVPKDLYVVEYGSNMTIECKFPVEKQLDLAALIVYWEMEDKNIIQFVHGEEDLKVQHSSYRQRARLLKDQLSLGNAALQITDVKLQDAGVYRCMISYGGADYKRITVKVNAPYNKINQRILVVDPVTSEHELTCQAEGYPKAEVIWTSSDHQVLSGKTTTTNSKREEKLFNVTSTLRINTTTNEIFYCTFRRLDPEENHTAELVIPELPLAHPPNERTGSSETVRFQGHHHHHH
Procedure, shortened: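 Step 1: compound with PD-L1-His (10 nM final), 15 min. Step 2: PD-1-Ig (20 nM final), 15 min. Step 3: Eu-cryptate anti-Ig (1 nM) plus APC anti-His (20 nM), 30 min equilibration. Signal taken as 665 nm/620 nm ratio.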

| pIC50 | SMILES |
| --- | --- |
| 8.00 to 9.00 | CCCC[C@H]1C(=O)N2C[C@H](O)C[C@@H]2C(=O)N[C@@H](CC(=O)O)C(=O)N[C@@H](C(C)C)C(=O)N(C)[C@@H](Cc2ccccc2)C(=O)N[C@@H](CCC(=O)O)C(=O)N2CCNC[C@@H]2C(=O)N[C@@H](Cc2c[nH]c3ccccc23)C(=O)N[C@@H](Cc2ccc(O)cc2)C(=O)N[C@@H](CCO)C(=O)N[C@H](C(=O)NCC(N)=O)CSCC(=O)N[C@@H](Cc2cc(F)c(F)c(F)c2)C(=O)N(C)[C@@H](Cc2ccccc2)C(=O)N1C [Example 10165] ({CH2CO}-[Phe(3,4,5-F3)][NMeF][NMeNle][d(cisHyp)]DV[NMeF]E[dPip(4-aza)]WY[hSer]CG-NH2; thioether N-13) |
| 7.00 to 8.00 | CCCC[C@H]1C(=O)N2CCOC[C@@H]2C(=O)N[C@@H](CC(=O)O)C(=O)N[C@@H](C(C)C)C(=O)N(C)[C@@H](Cc2ccccc2)C(=O)N[C@@H](CCC(=O)O)C(=O)N2C[C@H](O)C[C@@H]2C(=O)N[C@@H](Cc2c[nH]c3ccccc23)C(=O)N[C@@H](Cc2ccc(O)cc2)C(=O)N[C@@H](CCOC)C(=O)N[C@H](C(=O)NCC(N)=O)CSCC(=O)N[C@@H](Cc2cc(F)c(F)c(F)c2)C(=O)N(C)[C@@H](Cc2ccccc2)C(=O)N1C [Example 10189] ({CH2CO}-[Phe(3,4,5-F3)][NMeF][NMeNle][X1]DV[NMeF]E[d(cisHyp)]WY[hSer](Me)CG-NH2; thioether N-13) |
| 7.00 to 8.00 | CCCC[C@H]1C(=O)N2C[C@H](O)C[C@@H]2C(=O)N[C@@H](CC(=O)O)C(=O)N[C@@H](C(C)C)C(=O)N(C)[C@@H](Cc2ccccc2)C(=O)N[C@@H](Cc2ccc(O)cc2)C(=O)N2CCC[C@@H]2C(=O)N[C@@H](Cc2c[nH]c3ccccc23)C(=O)N[C@@H](Cc2ccc(O)cc2)C(=O)N[C@@H](CCOC)C(=O)N[C@H](C(=O)NCC(N)=O)CSCC(=O)N[C@@H](Cc2cc(F)c(F)c(F)c2)C(=O)N(C)[C@@H](Cc2ccccc2)C(=O)N1C [Example 10186] ({CH2CO}-[Phe(3,4,5-F3)][NMeF][NMeNle][d(cisHyp)]DV[NMeF]Y[dP]WY[hSer](Me)CG-NH2; thioether N-13) |
| 8.00 to 9.00 | CCCC[C@H]1C(=O)N2CCC[C@@H]2C(=O)N[C@@H](CC(=O)O)C(=O)N[C@@H](C(C)C)C(=O)N(C)[C@@H](Cc2ccccc2)C(=O)N[C@@H](CC(=O)O)C(=O)N2CCCC[C@@H]2C(=O)N[C@@H](Cc2c[nH]c3ccccc23)C(=O)N[C@@H](Cc2ccc(O)cc2)C(=O)N[C@@H](CC(C)C)C(=O)N[C@H](C(=O)NCC(N)=O)CSCC(=O)N[C@@H](Cc2cc(F)c(F)c(F)c2)C(=O)N(C)[C@@H](Cc2ccc(F)cc2)C(=O)N1C [Example 10570] ({CH2CO}-[Phe(3,4,5-F3)][NMePhe(4-F)][NMeNle][dP]DV[NMeF]D[dPip]WYLCG-NH2; thioether N-13) |
| 8.00 to 9.00 | CCCC[C@H]1C(=O)N2C[C@H](O)C[C@@H]2C(=O)N[C@@H](CC(=O)O)C(=O)N[C@@H](C(C)C)C(=O)N(C)[C@@H](Cc2ccccc2)C(=O)N[C@@H](CCC(=O)O)C(=O)N2CCOC[C@@H]2C(=O)N[C@@H](Cc2c[nH]c3ccccc23)C(=O)N[C@@H](Cc2ccc(O)cc2)C(=O)N[C@@H](CCCN)C(=O)N[C@H](C(=O)NCC(N)=O)CSCC(=O)N[C@@H](Cc2cc(F)c(F)c(F)c2)C(=O)N(C)[C@@H](Cc2ccc(F)cc2)C(=O)N1C [Example 10590] ({CH2CO}-[Phe(3,4,5-F3)][NMePhe(4-F)][NMeNle][d(cisHyp)]DV[NMeF]E[X1]WY[Orn]CG-NH2; thioether N-13) |
| 7.00 to 8.00 | CCCC[C@H]1C(=O)N2C[C@@H](O)C[C@@H]2C(=O)N[C@@H](CC(=O)O)C(=O)N[C@@H](C(C)C)C(=O)N(C)[C@H](Cc2ccccc2)C(=O)N[C@@H](Cc2ccc(O)cc2)C(=O)N2C[C@@H](O)C[C@@H]2C(=O)N[C@@H](Cc2c[nH]c3ccccc23)C(=O)N[C@@H](Cc2ccc(O)cc2)C(=O)N[C@@H](CC(C)C)C(=O)N[C@H](C(=O)NCC(N)=O)CSCC(=O)N[C@@H](Cc2ccc(F)c(F)c2)C(=O)N(C)[C@@H](Cc2ccccc2)C(=O)N1C [Example 9228] ({CH2CO}-[Phe(3,4-F2)][NMeF][NMeNle][dHyp]DV[dNMeF]Y[dHyp]WYLCG-NH2; thioether N-13) |
| 8.00 to 9.00 | CCCC[C@H]1C(=O)N2C[C@@H](O)C[C@@H]2C(=O)N[C@@H](CC(=O)O)C(=O)N[C@@H](C(C)C)C(=O)N(C)[C@@H](Cc2ccccc2)C(=O)N[C@@H](CCC(=O)O)C(=O)N2CCCC[C@@H]2C(=O)N[C@@H](Cc2c[nH]c3ccccc23)C(=O)N[C@@H](Cc2ccc(O)cc2)C(=O)N[C@@H](CCCCN)C(=O)N[C@H](C(=O)NCC(N)=O)CSCC(=O)N[C@@H](Cc2cc(F)c(F)c(F)c2)C(=O)N(C)[C@@H](Cc2ccc(F)cc2)C(=O)N1C [Example 10560] ({CH2CO}-[Phe(3,4,5-F3)][NMePhe(4-F)][NMeNle][dHyp]DV[NMeF]E[dPip]WYKCG-NH2; thioether N-13) |
| 8.00 to 9.00 | CCCC[C@H]1C(=O)N2CCC[C@@H]2C(=O)N[C@@H](CC(=O)O)C(=O)N[C@@H](C(C)C)C(=O)N(C)[C@@H](Cc2ccccc2)C(=O)N[C@@H](CCC(=O)O)C(=O)N2CCCC[C@@H]2C(=O)N[C@@H](Cc2c[nH]c3ccccc23)C(=O)N[C@@H](Cc2ccc(O)cc2)C(=O)N[C@@H](CCN)C(=O)N[C@H](C(=O)NCC(N)=O)CSCC(=O)N[C@@H](Cc2cc(F)c(F)c(F)c2)C(=O)N(C)[C@@H](Cc2ccc(O)cc2)C(=O)N1C [Example 10600] ({CH2CO}-[Phe(3,4,5-F3)][NMeY][NMeNle][dP]DV[NMeF]E[dPip]WY[Dab]CG-NH2; thioether N-13) |

Continued, molecule first:

| SMILES | pIC50 |
| --- | --- |
| CCCC[C@H]1C(=O)N(C)[C@@H](CCCC)C(=O)N[C@@H](CCC(=O)O)C(=O)N[C@H](C(=O)NCC(N)=O)CSCC(=O)N[C@@H](Cc2ccc(OC)cc2)C(=O)N(C)[C@@H](C)C(=O)N[C@@H](CC(=O)O)C(=O)N2CCC[C@H]2C(=O)N[C@@H](Cc2cnc[nH]2)C(=O)N[C@@H](CCCCN)C(=O)N2C[C@H](O)C[C@H]2C(=O)N[C@@H](Cc2c[nH]c3ccccc23)C(=O)N[C@@H](CCN)C(=O)N[C@@H](Cc2c[nH]c3ccccc23)C(=O)N1C [Example 7119] ({CH2CO}-Y(Me)[NMeA]DPHK[Hyp]W[Dab]W[NMeNle][NMeNle]ECG-NH2; thioether N-14) | 8.00 to 9.00 |
| CCCC[C@H]1C(=O)N2C[C@H](O)C[C@@H]2C(=O)N[C@@H](CC(=O)O)C(=O)N[C@@H](C(C)C)C(=O)N(C)[C@@H](Cc2ccccc2)C(=O)N[C@@H](Cc2ccc(O)cc2)C(=O)N2CCOC[C@@H]2C(=O)N[C@@H](Cc2c[nH]c3ccccc23)C(=O)N[C@@H](Cc2ccc(OC)cc2)C(=O)N[C@@H](CCOC)C(=O)N[C@H](C(=O)NCC(N)=O)CSCC(=O)N[C@@H](Cc2cc(F)c(F)c(F)c2)C(=O)N(C)[C@@H](Cc2ccccc2)C(=O)N1C [Example 10179] ({CH2CO}-[Phe(3,4,5-F3)][NMeF][NMeNle][d(cisHyp)]DV[NMeF]Y[X1]WY(Me)[hSer](Me)CG-NH2; thioether N-13) | 7.00 to 8.00 |
| CCCC[C@H]1C(=O)N(C)[C@@H](CCCC)C(=O)N[C@@H](CCC(=O)O)C(=O)N[C@H](C(=O)NCC(N)=O)CSCC(=O)N[C@@H](Cc2ccc(O)cc2)C(=O)N2CCOC[C@H]2C(=O)N[C@@H](CC(=O)O)C(=O)N2CCC[C@H]2C(=O)N[C@@H](CN)C(=O)N[C@@H](CCC(=O)O)C(=O)N2C[C@H](O)C[C@H]2C(=O)N[C@@H](Cc2c[nH]c3ccccc23)C(=O)N[C@@H](CO)C(=O)N[C@@H](Cc2c[nH]c3ccccc23)C(=O)N1C [Example 1520] ({CH2CO}-Y[Morpholine(3S-CO)]DP[Dap]E[Hyp]WSW[NMeNle][NMeNle]ECG-NH2; thioether N-14) | 8.00 to 9.00 |
| CCCC[C@H]1C(=O)N2C[C@@H](O)C[C@@H]2C(=O)N[C@@H](CC(=O)O)C(=O)N[C@@H](C(C)C)C(=O)N(C)[C@@H](Cc2ccccc2)C(=O)N[C@@H](CCC(=O)O)C(=O)N2CCOC[C@@H]2C(=O)N[C@@H](Cc2cn(CC(=O)O)c3ccccc23)C(=O)N[C@@H](Cc2ccc(O)cc2)C(=O)N[C@@H](CCCN)C(=O)N[C@H](C(=O)NCC(N)=O)CSCC(=O)N[C@@H](Cc2cc(F)c(F)c(F)c2)C(=O)N(C)[C@@H](Cc2ccccc2)C(=O)N1C [Example 9270] ({CH2CO}-[Phe(3,4,5-F3)][NMeF][NMeNle][dHyp]DV[NMeF]E[X1][Trp(1-CH2COOH)]Y[Orn]CG-NH2; thioether N-13) | 8.00 to 9.00 |
| CCCC[C@H]1C(=O)N(C)[C@@H](CCCC)C(=O)N[C@@H](CN)C(=O)N[C@H](C(=O)NCC(N)=O)CSCC(=O)N[C@@H](Cc2ccc(O)cc2)C(=O)N(C)[C@@H](C)C(=O)N[C@@H](CC(=O)O)C(=O)N2CCC[C@H]2C(=O)N[C@@H](CN)C(=O)N[C@@H](CCC(=O)O)C(=O)N2C[C@H](O)C[C@H]2C(=O)N[C@@H](Cc2c[nH]c3ccccc23)C(=O)N[C@@H](CCN)C(=O)N[C@@H](Cc2cn(CC(=O)O)c3ccccc23)C(=O)N1C [Example 5176] ({CH2CO}-Y[NMeA]DP[Dap]E[Hyp]W[Dab][Trp(1-CH2COOH)][NMeNle][NMeNle][Dap]CG-NH2; thioether N-14) | 8.00 to 9.00 |
| CCCC[C@H]1C(=O)N2CCC[C@@H]2C(=O)N[C@@H](CO)C(=O)N[C@@H](C)C(=O)N(C)[C@@H](Cc2ccccc2)C(=O)N[C@@H](Cc2ccc(O)cc2)C(=O)N(C)CC(=O)N[C@@H](Cc2csc3ccccc23)C(=O)N[C@@H](Cc2ccc(O)cc2)C(=O)N[C@@H](CC(C)C)C(=O)N[C@H](C(=O)NCC(N)=O)CSCC(=O)N[C@@H](Cc2ccccc2)C(=O)N(C)[C@@H](Cc2ccccc2)C(=O)N1C [Example 10055] ({CH2CO}-F[NMeF][NMeNle][dP]SA[NMeF]Y[Sar][Bta]YLCG-NH2; thioether N-13) | 6.00 to 7.00 |
| CCCC[C@H]1C(=O)N2CCC[C@@H]2C(=O)N[C@@H](CO)C(=O)N[C@@H](C(C)C)C(=O)N(C)[C@@H](Cc2ccccc2)C(=O)N[C@@H](Cc2ccc(O)cc2)C(=O)N2CSC[C@@H]2C(=O)N[C@@H](Cc2c[nH]c3ccccc23)C(=O)N[C@@H](Cc2ccc(O)cc2)C(=O)N[C@@H](CC(C)C)C(=O)N[C@H](C(=O)NCC(N)=O)CSCC(=O)N[C@@H](Cc2ccccc2)C(=O)N(C)[C@@H](Cc2ccccc2)C(=O)N1C [Example 10070] ({CH2CO}-F[NMeF][NMeNle][dP]SV[NMeF]Y[dThz]WYLCG-NH2; thioether N-13) | 7.00 to 8.00 |
